Results on 23 molecules are retold here after ChEMBL document CHEMBL1649104, “Benzofuran Derivatives as Potent, Orally Active S1P1 Receptor Agonists: A Preclinical Lead Molecule for MS” (ACS Med Chem Lett, 2011).

In data set [1] the target is T1, Sphingosine 1-phosphate receptor 1 (Homo sapiens, UniProt P21453). Description: Induction of human GFP-tagged chimeric S1P1R internalization in human U2Os cells by fluorescence microscopy. It counts as cell-based.
Data set [2] concerns the target T2, Sphingosine 1-phosphate receptor 3 (Homo sapiens, UniProt Q99500). The experiment in a line: Agonist activity at human S1P3R expressed in CHO cells by Ca(2+) mobilization assay. It counts as functional, cell-based.
The target of data set [3] is T1, Sphingosine 1-phosphate receptor 1. Description: Induction of human GFP-tagged chimeric S1P1R internalization in human U2Os cells by fluorescence microscopy relative to 1-(4-(6-benzylbenzofuran-2-yl)-3-fluorobenzyl)azetidine-3-carboxylic acid. It counts as cell-based.
Data set [4] has the same target. The experiment in a line: Agonist activity at human S1P1R expressed in CHO cells assessed as stimulation of [35S]GTPgammaS binding. Format: functional, cell-based.
The species named for a further data set is Homo sapiens. Description: Selectivity for human S1P1R over human S1P3R.
The nature of data set [5]: Oral bioavailability in Sprague-Dawley rat 3 mg/kg. Particulars: in vivo. Format: ADME, organism-based.
A short description of data set [6]: Terminal half life in cynomolgus monkey at 1 mg/kg, iv or 5 mg/kg, po. The conditions noted are these: in vivo, read-out: beta t1/2 (converted). It counts as ADME, organism-based, Macaca fascicularis.
Data set [7] in a line: Mean residence time in cynomolgus monkey at 1 mg/kg, iv or 5 mg/kg, po. Particulars: in vivo. It counts as ADME, organism-based, Macaca fascicularis.
The test system of data set [8] is Rattus norvegicus. Description: Lymphopenic activity in Lewis rat assessed as reduction in blood lymphocyte counts at 3 mg/kg, po measured 24 hrs post dose. It counts as functional.
Data set [9] in a line: Clearance in Beagle dog at 2 mg/kg, iv or 3 mg/kg, po. Format: ADME, organism-based, Canis lupus familiaris. Particulars: in vivo.
Data set [10] relates to Rattus norvegicus. The experiment in a line: Toxicity in telemetered Sprague-Dawley rat assessed as increase in mean arterial pressure at 20 mg/kg, po measured 4 to 6 hrs post dose. It counts as organism-based, Artery. Details: dose 20 mg/kg, route oral. The conditions noted are these: in vivo.
Data set [11] is described as follows: Inhibition of Cytochrome P450. It counts as ADME.
Data set [12] is described as follows: Oral bioavailability in Beagle dog 3 mg/kg. Particulars: in vivo. Format: ADME, organism-based, Canis lupus familiaris.
Data set [13] can be described thus: Clearance in cynomolgus monkey at 1 mg/kg, iv or 5 mg/kg, po. Format: ADME, organism-based, Macaca fascicularis. The conditions noted are these: in vivo.
Data set [14] in a line: Volume of distribution at steady state in cynomolgus monkey at 1 mg/kg, iv or 5 mg/kg, po. Particulars: in vivo, read-out: Vdss. It counts as ADME, organism-based, Macaca fascicularis.
Data set [15] has as its system Rattus norvegicus. The experiment in a line: Toxicity in telemetered Sprague-Dawley rat assessed as effect on heart rate at 20 mg/kg, po. It counts as organism-based. Details: dose 20 mg/kg, route oral. The conditions noted are these: in vivo.
Data set [16] is described as follows: Mean residence time in Beagle dog at 2 mg/kg, iv or 3 mg/kg, po. It counts as ADME, organism-based, Canis lupus familiaris. The conditions noted are these: in vivo.
The target of data set [17] is Voltage-gated inwardly rectifying potassium channel KCNH2 (Homo sapiens, UniProt Q12809). Description: Inhibition of human ERG by patch-clamp method.
Voltage-gated inwardly rectifying potassium channel KCNH2, sequence (Q12809 whole entry): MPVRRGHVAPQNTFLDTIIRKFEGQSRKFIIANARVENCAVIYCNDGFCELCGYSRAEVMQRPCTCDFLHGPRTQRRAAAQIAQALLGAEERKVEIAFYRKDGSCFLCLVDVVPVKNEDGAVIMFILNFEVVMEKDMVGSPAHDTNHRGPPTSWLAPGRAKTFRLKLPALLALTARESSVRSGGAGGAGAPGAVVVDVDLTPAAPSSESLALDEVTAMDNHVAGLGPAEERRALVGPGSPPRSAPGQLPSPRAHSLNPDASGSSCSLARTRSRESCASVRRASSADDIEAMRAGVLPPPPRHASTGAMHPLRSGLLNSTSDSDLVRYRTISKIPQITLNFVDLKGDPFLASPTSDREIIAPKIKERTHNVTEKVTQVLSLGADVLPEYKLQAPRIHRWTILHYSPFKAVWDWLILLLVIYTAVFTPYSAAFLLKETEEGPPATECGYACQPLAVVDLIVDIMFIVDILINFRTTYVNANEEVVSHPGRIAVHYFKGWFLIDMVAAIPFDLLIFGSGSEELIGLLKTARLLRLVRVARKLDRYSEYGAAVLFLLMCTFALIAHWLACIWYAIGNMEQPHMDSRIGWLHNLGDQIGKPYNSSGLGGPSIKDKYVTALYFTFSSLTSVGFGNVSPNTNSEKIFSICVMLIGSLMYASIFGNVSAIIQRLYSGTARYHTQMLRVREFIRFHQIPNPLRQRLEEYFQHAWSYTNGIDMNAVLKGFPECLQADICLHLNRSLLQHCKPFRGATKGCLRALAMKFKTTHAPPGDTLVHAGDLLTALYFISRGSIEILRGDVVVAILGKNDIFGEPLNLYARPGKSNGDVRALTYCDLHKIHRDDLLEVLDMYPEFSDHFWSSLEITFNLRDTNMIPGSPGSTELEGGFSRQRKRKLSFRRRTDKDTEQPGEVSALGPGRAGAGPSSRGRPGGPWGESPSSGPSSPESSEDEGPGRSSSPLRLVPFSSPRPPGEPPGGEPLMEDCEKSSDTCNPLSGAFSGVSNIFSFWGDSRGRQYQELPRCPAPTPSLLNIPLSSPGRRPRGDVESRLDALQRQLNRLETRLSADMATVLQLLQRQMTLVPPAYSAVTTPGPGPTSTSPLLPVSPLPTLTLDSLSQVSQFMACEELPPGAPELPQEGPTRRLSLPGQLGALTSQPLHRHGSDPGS
A short description of data set [18]: Volume of distribution at steady state in Beagle dog at 2 mg/kg, iv or 3 mg/kg, po. It counts as ADME, organism-based, Canis lupus familiaris. Particulars: in vivo, read-out: Vdss.
Data set [19] in a line: Terminal half life in Sprague-Dawley rat at 1 mg/kg, iv or 3 mg/kg, po. Format: ADME, organism-based. Particulars: in vivo, read-out: beta t1/2 (converted).
A short description of data set [20]: Induction of Cytochrome P450. Format: ADME.
Data set [21] in a line: Oral bioavailability in cynomolgus monkey 5 mg/kg. Format: ADME, organism-based, Macaca fascicularis. The conditions noted are these: in vivo.
In data set [22] the test system is Rattus norvegicus. Description: Toxicity in telemetered Sprague-Dawley rat assessed as effect on heart rate at 40 mg/kg, po. Format: organism-based. Details: dose 40 mg/kg, route oral. The conditions noted are these: in vivo.
Data set [23] can be described thus: Terminal half life in Beagle dog at 2 mg/kg, iv or 3 mg/kg, po. Format: ADME, organism-based, Canis lupus familiaris. Particulars: in vivo, read-out: beta t1/2 (converted).
Data set [24] in a line: Mutagenic activity in Salmonella Typhimurium by Ames assay. It counts as toxicity. Particulars: salmonella enterica subsp. enterica serovar typhimurium.
The subject of data set [25] is Rattus norvegicus. The experiment in a line: Toxicity in telemetered Sprague-Dawley rat assessed as increase in mean arterial pressure at 40 mg/kg, po measured 4 to 6 hrs post dose. It counts as organism-based, Artery. More on the design: dose 40 mg/kg, route oral. The conditions noted are these: in vivo.
Data set [26] in a line: Metabolic stability in human liver microsomes assessed as half life. Format: ADME, Microsome.
Data set [27] relates to Rattus norvegicus. Description: Lymphopenic activity in Lewis rat assessed as reduction in blood lymphocyte counts at 1 mg/kg, po measured 24 hrs post dose. It counts as functional.
The test system of data set [28] is Rattus norvegicus. Description: Lymphopenic activity in po dosed Lewis rat assessed as reduction in blood lymphocyte counts measured 24 hrs post dose. Format: functional, organism-based.
Data set [29] in a line: Volume of distribution at steady state in Sprague-Dawley rat at 1 mg/kg, iv or 3 mg/kg, po. The conditions noted are these: in vivo, read-out: Vdss. It counts as ADME, organism-based.
Another data set relates to Mus musculus. Description: Reversing disease course in experimental autoimmune encephalitis SJL mouse model of multiple sclerosis at 10 mg/kg, po. It counts as functional, organism-based. More on the design: dose 10 mg/kg.
Data set [30] is described as follows: Mean residence time in Sprague-Dawley rat at 1 mg/kg, iv or 3 mg/kg, po. Format: ADME, organism-based. Particulars: in vivo.
A short description of data set [31]: Toxicity in rat assessed as No observed adverse effect level by 4 day repeated dose toxicity study. It counts as organism-based. The conditions noted are these: in vivo.
Data set [32] can be described thus: Clearance in Sprague-Dawley rat at 1 mg/kg, iv or 3 mg/kg, po. The conditions noted are these: in vivo. Format: ADME, organism-based.
Data set [33] has as its target T2, Sphingosine 1-phosphate receptor 3. Description: Displacement of [33P]S1P from human S1P3R expressed in CHO cell membranes.

The source made the active and inactive calls. No cut-off for these calls is given here. A value given as a limit tells only on which side of the number the result lay.

T2 sequence (Q99500 whole entry): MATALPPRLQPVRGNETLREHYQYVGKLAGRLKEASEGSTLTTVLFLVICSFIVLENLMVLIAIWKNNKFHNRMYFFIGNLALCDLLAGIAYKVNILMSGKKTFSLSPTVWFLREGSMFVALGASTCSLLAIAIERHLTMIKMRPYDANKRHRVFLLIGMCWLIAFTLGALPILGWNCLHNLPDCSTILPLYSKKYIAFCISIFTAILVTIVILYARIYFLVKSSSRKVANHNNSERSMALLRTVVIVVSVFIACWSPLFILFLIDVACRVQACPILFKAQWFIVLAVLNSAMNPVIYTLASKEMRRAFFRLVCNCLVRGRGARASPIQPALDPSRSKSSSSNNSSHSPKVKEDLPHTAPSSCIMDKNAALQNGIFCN
T1 sequence (P21453 whole entry): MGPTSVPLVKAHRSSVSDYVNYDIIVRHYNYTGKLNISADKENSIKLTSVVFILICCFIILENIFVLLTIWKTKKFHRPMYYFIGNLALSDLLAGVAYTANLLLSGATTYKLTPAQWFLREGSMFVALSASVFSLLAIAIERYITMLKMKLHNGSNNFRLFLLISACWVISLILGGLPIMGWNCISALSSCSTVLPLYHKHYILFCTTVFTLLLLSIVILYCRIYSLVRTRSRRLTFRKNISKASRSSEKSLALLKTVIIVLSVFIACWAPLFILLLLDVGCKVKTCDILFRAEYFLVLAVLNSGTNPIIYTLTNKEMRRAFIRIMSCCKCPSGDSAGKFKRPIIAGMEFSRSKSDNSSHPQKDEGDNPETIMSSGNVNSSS

In the case of `O=C(O)C1CN(Cc2ccc(-c3cc4cc(OCC5CCCC5)ccc4o3)c(F)c2)C1`, the EC50 was 454 nM in [1] and above 25000 nM in data set [2]. The same molecule came in with an Efficacy in [3] of 71%.

For `O=C(O)C1CN(Cc2ccc(-c3cc4cc(Cc5ccccc5)ccc4o3)cc2)C1`, the EC50 in data set [1] is 2070 nM; in data set [2], above 4300 nM; in data set [4], 440 nM.

In the case of `CCCCc1ccc2oc(-c3ccc(CN4CC(C(=O)O)C4)cc3)cc2c1`, the EC50 in data set [1] is 2480 nM; in data set [2], above 25000 nM; in data set [4] it was 350 nM.

For the molecule `CCCCOc1ccc2cc(-c3ccc(CN4CC(C(=O)O)C4)cc3)oc2c1`, the EC50 in [1] is 2290 nM; in data set [2], 25000 nM. Also, in [3], the Efficacy was 89%.

As for `CCCCOc1ccc2oc(-c3ncc(CN4CC(C(=O)O)C4)s3)cc2c1`, the EC50 in data set [1] was above 1000 nM; in data set [2], above 25000 nM.

As for `O=C(O)C1CN(Cc2ccc(-c3cc4cc(C5CCCCC5)ccc4o3)nc2)C1`, the EC50 in data set [1] was 424 nM; in data set [2], above 25000 nM. In addition, in data set [3], the Efficacy came to 115%.

On to `O=C(O)C1CN(Cc2ccc(-c3cc4cc(N5CCCCC5)ccc4o3)cc2)C1`, for which the figures for the EC50 in data set [1] and in data set [2] were 620 nM and 1440 nM, respectively. Also, in the data set listed under Homo sapiens, the Selectivity ratio was 2.

`CCCCOc1ccc2oc(-c3ccc(CN4CC(C(=O)O)C4)cc3OC)cc2c1`: the figures for the EC50 in data set [1] and in data set [2] were 653 nM and above 25000 nM, respectively. For the same molecule, the Efficacy in [3] is 117%.

`O=C(O)C1CN(Cc2ccc(-c3cc4cc(Cc5ccccc5)ccc4o3)c(F)c2)C1`: the bioavailability in [5] was 80%; in data set [12], 51%; in data set [21] it was 88%. The half-life is 4.7 h in [6], 12.1 h in data set [19], 21.1 h in data set [23] and above 1.5 h in data set [26]. In addition, the EC50 in data set [1] was 57 nM; in data set [2], 27000 nM. Also, the MRT in data set [7] was 3.4 h; in data set [16], 9 h; in data set [30] it was 12.7 h. The inhibition in vivo at 3 mg/kg in the data set on Rattus norvegicus [8] came to 75%. The clearance in data set [9] was 4.43 mL/min/kg; in data set [13] it was 5.15 mL/min/kg; in [32], 2.3 mL/min/kg. In addition, the Activity result is listed as “Toxic” in the data set with Rattus norvegicus [10]; “Non-toxic” in the data set with Rattus norvegicus [15]; “Not Active” in data set [20]; “Non-toxic” with Rattus norvegicus [22]; “Non-toxic” in [24]; “Toxic” in the data set with Rattus norvegicus [25]. For the same molecule, the “inhibition (INH)” value in data set [11] is recorded as “Not Active”. Further, the Vd is 1 L/kg in data set [14], 2.2 L/kg in [18] and 1.7 L/kg in data set [29]. Further, in data set [17], the concentration for half-maximal inhibition (IC50) was 17000 nM. Also, the Selectivity ratio in the data set filed under Homo sapiens is above 1000. The inhibition in vivo at 1 mg/kg with Rattus norvegicus [27] worked out at 75%. In addition, in the data set on Rattus norvegicus [28], the inhibition entry is “Dose-dependent effect”. In addition, in the data set with Mus musculus, the inhibition entry is “Active”. The NOAEL at 96 h in [31] is 20 mg/kg.

`CCCCOc1ccc2oc(-c3ccc(CN4CC(C(=O)O)C4)cc3)cc2c1` registered an EC50 in data set [2] above 7200 nM.

In [2], `O=C(O)C1CN(Cc2ccc(-c3cc4cc(Oc5ccccc5)ccc4o3)cc2)C1` had an EC50 above 25000 nM.

On to `O=C(O)C1CN(Cc2ccc(-c3cc4cc(-c5cccnc5)ccc4o3)cc2)C1`, for which the EC50 in [1] was 5030 nM; in data set [2], above 25000 nM; in data set [4], above 1000 nM.

In the case of `CC(C)(C)c1ccc(-c2nnc(-c3ccc(CN4CC(C(=O)O)C4)cc3)o2)cc1`, in data set [33], the IC50 was above 10000 nM.

As to `O=C(O)C1CN(Cc2ccc(-c3cc4cc(C5CCCCC5)ccc4o3)cc2)C1`, the EC50 in data set [1] is 460 nM; in data set [2] it was above 25000 nM; in [4], 600 nM.

Consider `FC(F)(F)c1cccc(-c2noc(-c3cc(-c4ccccc4)c(C(F)(F)F)s3)n2)c1`, for which the IC50 in data set [33] is above 10000 nM.

Take `CCCCOc1ccc2oc(-c3ccc(CN4CC(C(=O)O)C4)cc3Cl)cc2c1`: the concentration giving a half-maximal response (EC50) in data set [1] came out at 158 nM; in data set [2] it was 10300 nM. Besides, the Efficacy in data set [3] came to 104%.

With `CC(C)Cc1ccc(-c2nc(-c3ccc(CN4CC(C(=O)O)C4)cc3)no2)cc1`, the IC50 in data set [33] was determined as 12000 nM.

In the case of `O=C(O)C1CN(Cc2ccc(-c3cc4cc(CCc5ccccc5)ccc4o3)cc2)C1`, the EC50 in [1] was 354 nM; in data set [2], above 25000 nM.

Take `O=C(O)C1CN(Cc2ccc(-c3cc4cc(OCC5CC5)ccc4o3)c(F)c2)C1`: the figures for the EC50 in data set [1] and in [2] were 290 nM and 4800 nM, respectively. The Efficacy in [3] came out at 156%.

Consider `O=C(O)C1CN(Cc2ccc(-c3cc4cc(Cc5ccccc5)ccc4o3)cc2F)C1`, for which the EC50 was found to be 253 nM in data set [1] and 3430 nM in [2]. This molecule also showed an Efficacy in [3] of 100%.

In the case of `CC(C)Cc1ccc2oc(-c3ccc(CN4CC(C(=O)O)C4)cc3)cc2c1`, the results for the EC50 in data set [1] and in data set [2] were 150 nM and 1900 nM, respectively.

`CC(C)(C)c1ccc(-c2noc(-c3ccc(CN4CC(C(=O)O)C4)cc3)n2)cc1`: in [33], the concentration for half-maximal inhibition (IC50) was above 10000 nM.

As to `O=C(O)C1CN(Cc2ccc(-c3cc4cc(C5CCCCC5)ccc4o3)c(F)c2)C1`, the figures for the EC50 in [1] and in [2] were 48 nM and above 25000 nM, respectively. Moreover, the Efficacy in data set [3] is 100%.
